Results as given in US7326825B2, “Methods of ungulate nuclear transfer” (Roslin Institute (Edinburgh), priority 1995, dated 2008).

How the values were obtained:
[1] = system: enucleated oocytes fused to primary bovine fibroblasts; test: Pronuclear formation in enucleated oocytes fused to primary bovine fibroblasts and subsequently activated; type: cell-based; design: percentage of activated oocytes containing 1 PN / percentage of activated oocytes containing 2 PN / percentage of activated oocytes containing 3 PN / percentage of activated oocytes containing 4 PN / percentage of activated oocytes containing >4 PN: concentration or dose not given beside the values
[2] = system: ovine oocytes; test: Nuclei formation upon activation of reconstructed ovine oocytes matured in vivo; type: cell-based; conditions: donor cells introduced in the absence of activation
Method: Similar observations to those in Example 1 have also been made in ovine oocytes which have been matured in vivo. Freshly ovulated oocytes can be retrieved by flushing from the oviducts of superstimulated ewes 24 hours after prostaglandin treatment. The use of calcium magnesium free PBS/1.0% FCS as a flushing medium prevents oocyte activation. Oocytes can be enucleated in calcium free medium and donor cells introduced as above in the absence of activation. No organised spindle is observed, multiple nuclei are formed upon subsequent activation and this may be suppressed by nocodazole treatment.

[3] = nocodazole 1 hour prior to and 6 hours following activation, fused 24 hpm, activated 42 hpm, scored 12 hours post activation

Compound: COC(=O)Nc1nc2ccc(C(=O)c3cccs3)cc2[nH]1 [nocodazole]
- formation of micronuclei ([1]; incubation of activated oocytes for 5 hours, 1 hour prior to and following the activation stimulus): prevents the formation of micronuclei
- percentage of activated oocytes containing 1 PN [1, 3]: 100%
- percentage of activated oocytes containing 2 PN [1, 3]: 0%
- percentage of activated oocytes containing 3 PN [1, 3]: 0%
- percentage of activated oocytes containing 4 PN [1, 3]: 0%
- percentage of activated oocytes containing >4 PN [1, 3]: 0%
- formation of multiple nuclei upon subsequent activation [2]: suppressed
